Measured values from US20030130180A1, “Utilization of an aminopeptidase inhibitor” (priority 2000, published 2003).

Test system: Karpas cells
Test: Detection of surface protein combinations of the protein network on untreated (V1) and actinonin-treated (V2) Karpas cells
Format: cell-based
Conditions: for V2 no. of cells / V2 no. of cells In 1/1OOO: actinonin-treated Karpas cells
Text: Principally, detecting of the surface protein combinations may comprise procedural steps of an automated method for determining molecular classes, molecular groups or molecular parts in a solid or liquid object according to DE 197 09 348 C. In these steps, surface proteins may be examined and measured in one and the same object, i.e. in a sample of immune cells and/or tumor cells for example, by sequentially applying reagent solutions Yn (n=1,2,3, . . . N) by means of an automated apparatus, said procedural steps being: I. taking a first reagent solution Y1 from a vessel containing the reagent solution, II. applying said reagent solution Y1 to the object which is on an object slide, III. allowing the reagent solution to react for an automatically set period of time, IV. recording at least one individual labeling pattern of the object previously labeled with said first reagent solution Y1, V. repeating steps I-IV by applying said first reagent solution Y1 or a second reagent solution Y2 or a mixture of said first and second reagent solutions, and VI. repeating steps I to V with further reagent solutions Yn (n=2,3, . . . N) or a mixture thereof and whereby the labeling distribution patterns obtained in each cycle of the method are turned into a complex molecular combination pattern of the object to be examined by computer-aided image overlay. From this combination pattern, information may be gained on the presence of the above mentioned proteins, thus also allowing detection of the surface protein combinations, if the reagent solutions used contain labeled substances directed against the proteins in question. In numerous examinations, it was possible to identify the 30 cell surface proteins already listed above which belong to a specific protein network controlling the early polarization stages of tumor cells and immune cells. In a further examination, surface protein combinations of this protein network of Karpas cells were detected, both in untreated form and after treatment with the aminopeptidase inhibitor actinonin. For this purpose, two groups V1 and V2 of Karpas cells were formed, with the cells of group Vl remaining untreated, while the cells of group V2 were treated with actinonin. Table 2 lists those surface protein combinations which are present both in the actinonin-treated cells and in the untreated cells. However, this table and the further tables 3 and 4 only give examples of 18 of the 30 proteins, with the detected proteins being designated 1 and the non-detected proteins being designated 0. The proteins are continuously numbered 1 to 18, with the nomenclature being notable from table 1. [table] The cell numbers stated in tables 2 to 4 refer to each 1,000 cells examined in groups V1 and V2. Table 3 lists the surface protein combinations which only occur in the untreated Karpas cells and are never found in the actinonin-treated Karpas cells. The number of protein combinations listed in this table 3 amounts to 131. Finally, table 4 exclusively lists those surface protein combinations which occur exclusively in the actinonin-treated Karpas cells. It may be gathered from tables 2 to 4 that, if one examines merely 18 proteins of the 30 proteins, a total of 394 different surface protein combinations will occur, with a total of 334 different combinations occurring in the untreated cells and a total of 263 different combinations being detected in the treated cells.

CCCCC[C@H](CC(=O)NO)C(=O)N[C@H](C(=O)N1CCC[C@H]1CO)C(C)C [actinonin]
V2 no. of cells (protein code No. 54, proteins 1-18 binary 011000001100001100): 1.5 1/1OOO
V2 no. of cells (protein code No. 55, proteins 1-18 binary 001000010100001000): 2.0 1/1OOO
V2 no. of cells (protein code No. 57, proteins 1-18 binary 101100110111011000): 2.4 1/1OOO
V2 no. of cells (protein code No. 58 (first line so numbered), proteins 1-18 binary 001100011101001000): 1.7 1/1OOO
V2 no. of cells (protein code No. 58 (second line so numbered), proteins 1-18 binary 000000011101000000): 2.9 1/1OOO
V2 no. of cells (protein code No. 59, proteins 1-18 binary 101100010111001000): 1.5 1/1OOO
V2 no. of cells (protein code No. 60, proteins 1-18 binary 001000000101001000): 1.5 1/1OOO
V2 no. of cells (protein code No. 61, proteins 1-18 binary 000000010111001000): 1.6 1/1OOO
V2 no. of cells (protein code No. 62, proteins 1-18 binary 001000000001001000): 0.6 1/1OOO
V2 no. of cells (protein code No. 63, proteins 1-18 binary 000000010100001000): 1.6 1/1OOO
V2 no. of cells (protein code No. 64, proteins 1-18 binary 000000011001000000): 2.1 1/1OOO
V2 no. of cells (protein code No. 65, proteins 1-18 binary 000000000011000000): 0.7 1/1OOO
V2 no. of cells (protein code No. 66, proteins 1-18 binary 101000010101011000): 1.0 1/1OOO
V2 no. of cells (protein code No. 67, proteins 1-18 binary 001100011111011000): 1.8 1/1OOO
V2 no. of cells (protein code No. 68, proteins 1-18 binary 000000000010000000): 0.1 1/1OOO
V2 no. of cells (protein code No. 69, proteins 1-18 binary 001000000011000000): 1.2 1/1OOO
V2 no. of cells (protein code No. 70, proteins 1-18 binary 010000001100000100): 1.5 1/1OOO
V2 no. of cells In 1/1OOO (surface protein combination No. 93, binary code 011100011101001000): 0.7 1/1OOO
V2 no. of cells In 1/1OOO (surface protein combination No. 94, binary code 000000011000000000): 1.0 1/1OOO
V2 no. of cells In 1/1OOO (surface protein combination No. 95, binary code 000000001101000000): 1.4 1/1OOO
V2 no. of cells In 1/1OOO (surface protein combination No. 96, binary code 001100011101011000): 0.3 1/1OOO
V2 no. of cells In 1/1OOO (surface protein combination No. 97, binary code 011000011101001100): 0.7 1/1OOO
V2 no. of cells In 1/1OOO (surface protein combination No. 98, binary code 011000011100001100): 0.9 1/1OOO
V2 no. of cells In 1/1OOO (surface protein combination No. 99, binary code 000000011101001000): 0.9 1/1OOO
V2 no. of cells In 1/1OOO (surface protein combination No. 100, binary code 010000001000000000): 0.3 1/1OOO
V2 no. of cells In 1/1OOO (surface protein combination No. 101, binary code 010000011101000000): 0.5 1/1OOO
V2 no. of cells In 1/1OOO (surface protein combination No. 102, binary code 001100010101011100): 0.6 1/1OOO
V2 no. of cells In 1/1OOO (surface protein combination No. 103, binary code 011000011001000000): 0.7 1/1OOO
V2 no. of cells In 1/1OOO (surface protein combination No. 104, binary code 001000001001000000): 0.8 1/1OOO
V2 no. of cells In 1/1OOO (surface protein combination No. 105, binary code 000000010111000000): 0.9 1/1OOO
V2 no. of cells In 1/1OOO (surface protein combination No. 107, binary code 000100010001001000): 0.2 1/1OOO
V2 no. of cells In 1/1OOO (surface protein combination No. 109, binary code 000100000000000000): 0.6 1/1OOO
V2 no. of cells In 1/1OOO (surface protein combination No. 110, binary code 011000011111001000): 0.8 1/1OOO
V2 no. of cells In 1/1OOO (surface protein combination No. 111, binary code 001000000100000000): 0.8 1/1OOO
V2 no. of cells In 1/1OOO (surface protein combination No. 112, binary code 101000010111001000): 0.2 1/1OOO
V2 no. of cells In 1/1OOO (surface protein combination No. 113, binary code 011000011111011000): 0.2 1/1OOO
V2 no. of cells In 1/1OOO (surface protein combination No. 114, binary code 011000001100000000): 0.2 1/1OOO
V2 no. of cells In 1/1OOO (surface protein combination No. 115, binary code 001000000111001000): 0.3 1/1OOO
V2 no. of cells In 1/1OOO (surface protein combination No. 116, binary code 101100010101001000): 0.6 1/1OOO
V2 no. of cells In 1/1OOO (surface protein combination No. 117, binary code 101100010011011000): 0.6 1/1OOO
V2 no. of cells In 1/1OOO (surface protein combination No. 118, binary code 101100110111011100): 0.7 1/1OOO
V2 no. of cells In 1/1OOO (surface protein combination No. 119, binary code 000000010010000000): 0.1 1/1OOO
V2 no. of cells In 1/1OOO (surface protein combination No. 120, binary code 011100011111011000): 0.2 1/1OOO
V2 no. of cells In 1/1OOO (surface protein combination No. 121, binary code 001000011011001000): 0.2 1/1OOO
V2 no. of cells In 1/1OOO (surface protein combination No. 122, binary code 011000001100000100): 0.3 1/1OOO
V2 no. of cells In 1/1OOO (surface protein combination No. 123, binary code 000000001100001000): 0.3 1/1OOO
V2 no. of cells In 1/1OOO (surface protein combination No. 124, binary code 110000001100001100): 0.5 1/1OOO
V2 no. of cells In 1/1OOO (surface protein combination No. 125, binary code 010000011100001000): 0.5 1/1OOO
V2 no. of cells In 1/1OOO (surface protein combination No. 126, binary code 001000110111011000): 0.5 1/1OOO
V2 no. of cells In 1/1OOO (surface protein combination No. 127, binary code 001000011111000000): 0.5 1/1OOO
V2 no. of cells In 1/1OOO (surface protein combination No. 128, binary code 111000001100001100): 0.7 1/1OOO
V2 no. of cells In 1/1OOO (surface protein combination No. 129, binary code 011000011100001000): 0.7 1/1OOO
V2 no. of cells In 1/1OOO (surface protein combination No. 130, binary code 101100010101011100): 0.2 1/1OOO
V2 no. of cells In 1/1OOO (surface protein combination No. 131, binary code 101000010101001000): 0.3 1/1OOO
V2 no. of cells In 1/1OOO (surface protein combination No. 134, binary code 010000011100001100): 0.5 1/1OOO
V2 no. of cells In 1/1OOO (surface protein combination No. 135, binary code 010000011100000000): 0.5 1/1OOO
V2 no. of cells In 1/1OOO (surface protein combination No. 136, binary code 001100010101001100): 0.5 1/1OOO
V2 no. of cells In 1/1OOO (surface protein combination No. 137, binary code 001100000000001000): 0.5 1/1OOO
V2 no. of cells In 1/1OOO (surface protein combination No. 138, binary code 000000001001001000): 0.6 1/1OOO
V2 no. of cells In 1/1OOO (surface protein combination No. 139, binary code 011000001101000000): 0.1 1/1OOO
V2 no. of cells In 1/1OOO (surface protein combination No. 140, binary code 000000000011001000): 0.1 1/1OOO
V2 no. of cells In 1/1OOO (surface protein combination No. 141, binary code 101000010111011100): 0.2 1/1OOO
V2 no. of cells In 1/1OOO (surface protein combination No. 142, binary code 001100000101001000): 0.2 1/1OOO
V2 no. of cells In 1/1OOO (surface protein combination No. 143, binary code 011100011111001000): 0.3 1/1OOO
V2 no. of cells In 1/1OOO (surface protein combination No. 144, binary code 001100010111000000): 0.3 1/1OOO
V2 no. of cells In 1/1OOO (surface protein combination No. 145, binary code 001000000100001000): 0.3 1/1OOO
V2 no. of cells In 1/1OOO (surface protein combination No. 146, binary code 011000011001001000): 0.5 1/1OOO
V2 no. of cells In 1/1OOO (surface protein combination No. 147, binary code 111100011100011100): 0.1 1/1OOO
V2 no. of cells In 1/1OOO (surface protein combination No. 148, binary code 110000001100011100): 0.1 1/1OOO
V2 No. of cells In 1/1000, total (total over the 60 combinations occurring exclusively in actinonin-treated Karpas cells): 9.1 1/1000
